The values that follow come from patent US20240239752A1, “BICYCLIC HETEROAROMATIC INHIBITORS OF KLK5” (BioCryst Pharmaceuticals, Inc., priority 2021, published 2024).

The test has as its target T1, recombinant human KLK5 (Homo sapiens, UniProt Q9Y337).
T1 construct: purchased Novoprotein or R&D Systems C415 or 1108-SE
T1 sequence (Q9Y337 23-293): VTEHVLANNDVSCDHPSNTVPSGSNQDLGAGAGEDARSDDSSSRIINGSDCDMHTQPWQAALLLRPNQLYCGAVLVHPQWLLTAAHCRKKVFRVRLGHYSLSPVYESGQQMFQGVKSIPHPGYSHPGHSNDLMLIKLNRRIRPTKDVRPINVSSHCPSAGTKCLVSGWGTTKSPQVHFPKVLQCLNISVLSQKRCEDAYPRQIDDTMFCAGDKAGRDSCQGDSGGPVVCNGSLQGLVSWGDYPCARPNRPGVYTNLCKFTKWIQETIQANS
Nature of the test: Kallikrein (KLK) 5 enzymatic assay (Boc-VPR-AMC fluorogenic substrate). As to conditions: recombinant human KLK5 0.1 μg/well, Boc-VPR-AMC 100 μM, pH 7.5, room temperature, 1% DMSO; tested a minimum of three times. The format is biochemical. From the text: Kallikrein-5 (KLK5) is a member of the serine protease family of proteolytic enzymes, confirmed to have trypsin-like activity (Michael I P, et al. Biochemical and enzymatic characterization of human kallikrein 5 (hK5), a novel serine protease potentially involved in cancer progression (J. Biol. Chem. 2005 Apr. 15; 280 (15): 14628-35). Boc-VPR-AMC is a fluorogenic peptide substrate composed of the short peptide chain, Valine-Proline-Arginine (VPR) and the fluorophore, 7-amino-4-methylcoumarin (AMC). KLK5 is able to cleave the fluorogenic peptide substrate Boc-VPR-AMC, releasing the AMC fluorophore, which causes a fluorescent emission in proportion with the enzymatic activity of KLK5. The KLK5 enzymatic activity is monitored by measuring fluorescent emission at wavelengths of 380 nm (excitation) and 460 nm (emission).
The IC50 value of compounds against KLK5 (i.e., the concentration of the compound that inhibits 50% of the enzymatic activity) was calculated according to the procedure reported by R&D systems (Recombinant human KLK5, Catalog Number: 1108-SE), with the exception the pH of the assay was modified from 8.0 to 7.5. Specifically, recombinant human KLK5 (Novoprotein Catalog #C415 or R&D systems Catalog #1108-SE) and fluorogenic peptide Boc-VPR-AMC substrate (R&D Catalog #ES011) were each separately diluted in assay buffer (0.1 M NaH2PO4 buffer, pH 7.5). The compounds of the disclosure were dissolved in DMSO at a concentration of 10 mM. A portion of this stock solution was added to the recombinant human KLK5 solution to provide a desired concentration of the compounds and the mixture was incubated at room temperature. The reaction was initiated by the addition of the fluorogenic peptide substrate at room temperature. The final concentration of recombinant human KLK5 was 0.1 μg/well and the final concentration of the fluorogenic substrate was 100 μM (final volume of 100 μL, 1% DMSO). The assays were performed in 96 well F16 Black Maxisorp Plate (Nunc Catalog #475515). Controls included assay buffer alone and enzyme solutions to which DMSO was added. The reaction rates were measured spectrophotometrically by excitation at 380 nm and emission at 460 nm on a Biotek Synergy H1 plate reader.
The reaction rate for enzyme alone was compared to the reaction rate of enzyme in the presence of compound and the percent inhibition was calculated as shown below:
Percent Inhibition=[Rate with inhibitor/Rate without inhibitor)]×100
An IC50 indicates a compound concentration that inhibits 50% of the enzymatic activity. Compounds were tested a minimum of three times.
As a reminder, the IC50 is the concentration that inhibits the measured activity by half. As to `CCC(=O)N1CCC2(CC1)CC(Oc1ccccc1CC(=O)O)c1cc(-c3cccc4c(N)nccc34)ccc12` (single isomer, unassigned; (+)) [Compound 385d, (+)-2-(2-((5-(1-aminoisoquinolin-5-yl)-1′-propionyl-2,3-dihydrospiro[indene-1,4′-piperidin]-3-yl)oxy)phenyl)acetic acid], the IC50 is below 1000 nM.

On to `CCC(=O)N1CCC2(CC1)CC(Oc1ccccc1CC(=O)O)c1cc(-c3cccc4c(N)nccc34)ccc12` (single isomer, unassigned; (-)) [Compound 385e, (−)-2-(2-((5-(1-aminoisoquinolin-5-yl)-1′-propionyl-2,3-dihydrospiro[indene-1,4′-piperidin]-3-yl)oxy)phenyl)acetic acid], for which the IC50 is below 1000 nM.

As for `COc1ccc(CC(=O)O)c(OCc2c(C)oc3ccc(-c4cccc(C(=N)N)c4)cc23)c1` [7 g, 2-(2-((5-(3-carbamimidoylphenyl)-2-methylbenzofuran-3-yl)methoxy)-4-methoxyphenyl)acetic acid], the IC50 is below 1000 nM.

Consider `CC(C)n1nc(C(=O)Nc2ccccc2C(=O)O)c2cc(-c3cccc(C(=N)N)c3)ccc21` [Compound 1i, 2-(5-(3-carbamimidoylphenyl)-1-isopropyl-1H-indazole-3-carboxamido)benzoic acid], for which the IC50 lay within 1000 to 10000 nM.

On to `CC(C)n1nc(COc2ccccc2CC(=O)O)c2cc(-c3ccc(C(=N)N)cc3)ccc21` [Compound 2g, 2-(2-((5-(4-carbamimidoylphenyl)-1-isopropyl-1H-indazol-3-yl)methoxy)phenyl)acetic acid], for which the IC50 is above 10000 nM.

As for `CC(C)n1nc(C(=O)Nc2ccccc2C(=O)O)c2cc(-c3ccc(C(=N)N)cc3)ccc21` [Compound 3b, 2-(5-(4-carbamimidoylphenyl)-1-isopropyl-1H-indazole-3-carboxamido)benzoic acid], the IC50 was above 10000 nM.

Consider `Cn1nc(COc2ccccc2CC(=O)O)c2cc(-c3cccc(C(=N)N)c3)ccc21` [Compound 4e, 2-(2-((5-(3-carbamimidoylphenyl)-1-methyl-1H-indazol-3-yl)methoxy)phenyl)acetic acid], for which the IC50 was below 1000 nM.

Turning to `COc1ccc(CC(=O)O)c(OCc2nn(C(C)C)c3ccc(-c4cccc(C(=N)N)c4)cc23)c1` [Compound 5e, 2-(2-((5-(3-carbamimidoylphenyl)-1-isopropyl-1H-indazol-3-yl)methoxy)-4-methoxyphenyl)acetic acid], the IC50 is below 1000 nM.

As for `CC(C)n1nc(COc2ccccc2CC(=O)O)c2cc(-c3cccc(C(=N)N)c3)ccc21` [Compound 6b, 2-(2-((5-(3-carbamimidoylphenyl)-1-isopropyl-1H-indazol-3-yl)methoxy)phenyl)acetic acid], the IC50 was below 1000 nM.

For the compound `Nc1nccc2c(-c3ccc4nn(C5CCOC5)c(COc5ccccc5CC(=O)O)c4c3)cccc12` (centres unmarked) [Compound 8g, 2-(2-((5-(1-aminoisoquinolin-5-yl)-2-(tetrahydrofuran-3-yl)-2H-indazol-3-yl)methoxy)phenyl)acetic acid], the IC50 is below 1000 nM.

For `CC1CC(n2nc(COc3ccccc3CC(=O)O)c3cc(-c4ccc5ccnc(N)c5c4)ccc32)C1` (centres unmarked) [Compound 9j, 2-(2-((5-(1-aminoisoquinolin-7-yl)-1-(3-methylcyclobutyl)-1H-indazol-3-yl)methoxy)phenyl)acetic acid], the IC50 is below 1000 nM.

Regarding `CC(C)(C)OC(=O)N1CC(n2nc(COc3ccccc3CC(=O)O)c3cc(-c4ccc5ccnc(N)c5c4)ccc32)C1` [Compound 10e, 2-(2-((5-(1-aminoisoquinolin-7-yl)-1-(1-(tert-butoxycarbonyl)azetidin-3-yl)-1H-indazol-3-yl)methoxy)phenyl)acetic acid], the IC50 is below 1000 nM.

`Nc1nccc2ccc(-c3ccc4c(c3)c(COc3ccccc3CC(=O)O)nn4C3CC(F)(F)C3)cc12` [Compound 11e, 2-(2-((5-(1-aminoisoquinolin-7-yl)-1-(3,3-difluorocyclobutyl)-1H-indazol-3-yl)methoxy)phenyl)acetic acid]: the IC50 is below 1000 nM.

On to `Nc1nccc2ccc(-c3ccc4nc(C5CC5)cc(COc5ccccc5CC(=O)O)c4c3)cc12` [Compound 12e, 2-(2-((6-(1-aminoisoquinolin-7-yl)-2-cyclopropylquinolin-4-yl)methoxy)phenyl)acetic acid], for which the IC50 is above 10000 nM.

Turning to `COc1ccc(CC(=O)O)c(OCc2c3cc(-c4ccc5ccnc(N)c5c4)ccc3nn2C2CCOC2)c1` (centres unmarked) [Compound 13c, 2-(2-((5-(1-aminoisoquinolin-7-yl)-2-(tetrahydrofuran-3-yl)-2H-indazol-3-yl)methoxy)-4-methoxyphenyl)acetic acid], the 50% inhibitory concentration (IC50) is 1000 to 10000 nM.

For the compound `COC(=O)Cc1ccc(OC)cc1OCc1c2cc(-c3ccc4ccnc(N)c4c3)ccc2nn1C1CCOC1` (centres unmarked) [Compound 13d, methyl 2-(2-((5-(1-aminoisoquinolin-7-yl)-2-(tetrahydrofuran-3-yl)-2H-indazol-3-yl)methoxy)-4-methoxyphenyl)acetate], the IC50 was above 10000 nM.

For the compound `Nc1nccc2c(-c3ccc4nn(C5CCCCC5)c(COc5ccccc5CC(=O)O)c4c3)cccc12` [Compound 14f, 2-(2-((5-(1-aminoisoquinolin-5-yl)-2-cyclohexyl-2H-indazol-3-yl)methoxy)phenyl)acetic acid], the IC50 fell in the range of 1000 to 10000 nM.

As to `Cc1ccc(CC(=O)O)c(OCc2c3cc(-c4ccc5ccnc(N)c5c4)ccc3nn2C2CCCCC2)c1` [Compound 15d, 2-(2-((5-(1-aminoisoquinolin-7-yl)-2-cyclohexyl-2H-indazol-3-yl)methoxy)-4-methylphenyl)acetic acid], the IC50 is above 10000 nM.

With `COc1ccc(CC(=O)O)c(OCc2c3cc(-c4ccc5ccnc(N)c5c4)ccc3nn2C2CCCCC2)c1` [Compound 16c, 2-(2-((5-(1-aminoisoquinolin-7-yl)-2-cyclohexyl-2H-indazol-3-yl)methoxy)-4-methoxyphenyl)acetic acid], the IC50 fell in the range of 1000 to 10000 nM.

Turning to `Cc1ccc(CC(=O)O)c(OCc2c3cc(-c4ccc5ccnc(N)c5c4)ccc3nn2C2CCC2)c1` [Compound 17e, 2-(2-((5-(1-aminoisoquinolin-7-yl)-2-cyclobutyl-2H-indazol-3-yl)methoxy)-4-methylphenyl)acetic acid], the IC50 was above 10000 nM.

As for `Cc1ccc(CC(=O)O)c(OCc2c3cc(-c4cccc5c(N)nccc45)ccc3nn2C2CCC2)c1` [Compound 18c, 2-(2-((5-(1-aminoisoquinolin-5-yl)-2-cyclobutyl-2H-indazol-3-yl)methoxy)-4-methylphenyl)acetic acid], the IC50 fell in the range of 1000 to 10000 nM.

In the case of `COc1ccc(CC(=O)O)c(OCc2c3cc(-c4cccc5c(N)nccc45)ccc3nn2C2CCC2)c1` [Compound 19c, 2-(2-((5-(1-aminoisoquinolin-5-yl)-2-cyclobutyl-2H-indazol-3-yl)methoxy)-4-methoxyphenyl)acetic acid], the IC50 is 1000 to 10000 nM.

Consider `COc1ccc(CC(=O)O)c(OCc2c3cc(-c4ccc5ccnc(N)c5c4)ccc3nn2C2CCC2)c1` [Compound 20b, 2-(2-((5-(1-aminoisoquinolin-7-yl)-2-cyclobutyl-2H-indazol-3-yl)methoxy)-4-methoxyphenyl)acetic acid], for which the IC50 lay within 1000 to 10000 nM.

`Nc1nccc2c(-c3ccc4nn(C5CCCC5)c(COc5ccccc5CC(=O)O)c4c3)cccc12` [Compound 21e, 2-(2-((5-(1-aminoisoquinolin-5-yl)-2-cyclopentyl-2H-indazol-3-yl)methoxy)phenyl)acetic acid]: the IC50 is below 1000 nM.

As to `N=C(N)c1cccc(-c2ccc3nn(C4CCCC4)c(COc4ccccc4CC(=O)O)c3c2)c1` [Compound 22c, 2-(2-((5-(3-carbamimidoylphenyl)-2-cyclopentyl-2H-indazol-3-yl)methoxy)phenyl)acetic acid], the IC50 is below 1000 nM.

For `COc1c(-c2ccc3nn(C4CCC4)c(COc4ccccc4CC(=O)O)c3c2)ccnc1C(=N)NO` [Compound 23g, 2-(2-((2-cyclobutyl-5-(2-(N-hydroxycarbamimidoyl)-3-methoxypyridin-4-yl)-2H-indazol-3-yl)methoxy)phenyl)acetic acid], the IC50 lay within 1000 to 10000 nM.
